This series relates to community-dwelling elderly patients diagnosed with Alzheimer's disease (behavioral agitation). As to the kind of experiment: 8-week, open-label, single-arm study of oxcarbazepine for behavioral agitation in Alzheimer's disease patients. The format is in vivo, human. To be noted: for change from baseline in Cohen-Mansfield Agitation Inventory (CMAI) score (mean±SD): baseline 60.6±14.7, mean oxcarbazepine daily dose 340 mg/day (range 150-552 mg/day), p≦0.0002. The method, then: In an 8-week, open-label, single-arm study are recruited twenty-six patients community-dwelling elderly patients (>63 years of age) diagnosed with Alzheimer's disease. After a 1-week screening period to assess each patient's agitation level, oxcarbazepine 150 mg/day treatment is initiated and titrated by 150 mg/day every 3-7 days to a maximum of 1200 mg/day with a mean oxcarbazepine daily dose of 340 mg/day (range 150-552 mg/day). The primary outcome measure is improvement in behavioral agitation, based on the 38-item Cohen-Mansfield Agitation Inventory (CMAI) that evaluates the prevalence of pathologic and disruptive agitated behavior. Secondary evaluations include effects on neuropsychiatric symptoms, cognitive impairment, global functioning, and tolerability.
Significant reductions in CMAI score from baseline (mean±SD: 60.6±14.7) occur at each time point (mean±SD change from baseline on Day 14: −16.9±19.7, Day 28: −22.6±19.0, Day 56: −20.8±19.6; all p≦0.0002). […] Cognitive performance and global functioning remain stable throughout the study.

The mark [1] stands for this setting: patients with Alzheimer's disease, open-label prospective study.

Turning to `NC(=O)N1c2ccccc2CC(=O)c2ccccc21` [oxcarbazepine, 10-oxo-10,II-dihydro-5H-dibenz(b,f)azepine-5-carboxamide], the “change from baseline in Cohen-Mansfield Agitation Inventory (CMAI) score (mean±SD)” value (shortened to “change from baseline … (mean±SD)”) (Day 14) is −16.9±19.7. For the same compound, where the note is “Day 28”, the “change from baseline … (mean±SD)” value is listed as −22.6±19.0. For the same compound, the “change from baseline … (mean±SD)” value (Day 56) is on record as −20.8±19.6. Moreover, the “mean Neuropsychiatric Inventory score” value (each time point, all p≦0.02 versus screening) is “Significant improvement”. Under setting [1], the “efficacy in the treatment of agitation” value was “effective” and the tolerability entry is “generally well tolerated”. Under “throughout the 8-week study”, the cognitive performance entry is given as “remain stable” and the global functioning result was “remain stable”.
